SMILES strings stand for the structures.

We go through 5 molecules from patent US20060223819A1, “Quinoline Derivatives as NK-3 Antagonists” (GlaxoSmithKline S.P.A. & Laboratoire, priority 2000, published 2006).

One may read the melting point as the temperature, or range, at which the solid turns liquid. Turning to `C[C@H](NC(=O)c1c(CN2CCN(/C(=C/[N+](=O)[O-])N3CCCC3)CC2)c(-c2ccccc2)nc2ccccc12)c1ccccc1` [Example 12, 3-[4-(2-Nitro-1-pyrrolidin-1-yl-vinyl)-piperazin-1-ylmethyl]-2-phenyl-quinoline-4-carboxylic acid ((S)-1-phenyl-ethyl)-amide], the melting point fell in the range of 164 to 165 °C.
The value for `CC(CN1CCN(Cc2c(-c3ccccc3)nc3ccccc3c2C(=O)N[C@@H](C)c2ccccc2)CC1)C(=O)O` (stereo partly drawn) [Example 14, 2-Methyl-3-{4-[2-phenyl-4-((S)-1-phenyl-ethylcarbamoyl)-quinolin-3-ylmethyl]-piperazin-1-yl}-propionic acid] was 137 to 138 °C.
The value for `C[C@H](NC(=O)c1c(CN2CCN(CCS(C)(=O)=O)CC2)c(-c2ccccc2)nc2ccccc12)C1CCCCC1` [Example 21, 3-[4-(2-Methanesulfonyl-ethyl)-piperazin-1-ylmethyl]-2-phenyl-quinoline-4-carboxylic acid ((S)-1-cyclohexyl-ethyl)-amide] was 120 to 121 °C; that for `C[C@H](NC(=O)c1c(CN2CCN(CCN3CCCCC3)C(=O)C2)c(-c2ccccc2)nc2ccccc12)C1CCCCC1` [Example 43, 3-[3-Oxo-4-(2-piperidin-1-ylethyl)piperazin-1-ylmethyl]-2-phenylquinoline-4-carboxylic acid ((S)-1-cyclohexylethyl)amide] was 160 °C; that for `COc1cccc([C@H](C)NC(=O)c2c(CN3CCNCC3)c(-c3ccccc3)nc3ccccc23)c1` [Example 3, 2-Phenyl-3-piperazin-1-ylmethyl-quinoline-4-carboxylic acid[(S)-1-(3-methoxy-phenyl)-ethyl]-amide] was 147 to 153 °C.
